One assay relates to TFEB. Briefly: TFEB nuclear translocation in HeLa cells with WT or constitutively active mTOR. The following applies: cells transfected with WT mTOR or mTOR^E2419K, trehalose 100 mM 24 h. Format: cell-based, human. How it is done:
(b) Quantification of TFEB subcellular localization (C, cytoplasmic; N, nuclear) after 24 h of trehalose treatment (Tre) or in untreated cells (UT). Scale bars in a, b is 40 μm. (c) Immunoblot analyses show expression levels of substrates downstream of mTORC1. Wild-type (WT) and TSC2 null MEF cells were treated with trehalose (Tre; 100 mM) for 24 h or left untreated. As controls, cells were treated with Torin 1 (300 nM) or rapamycin (300 nM) for 2 h before extracting the lysates. Phospho- and total S6K1 (P-S6K1 and T-S6K1), phospho- and total S6 (P-S6 and T-S6) and phospho- and total 4E-BP1 (P-4E-BP1 and T-4E-BP1) were detected as readouts of mTORC1 activity. […] (f) HeLa cells co-transfected with TFEB-3×FLAG and mTOR or (g) TFEB-3×FLAG and constitutively active mTOR (CA-mTOR, […]) constructs were treated with trehalose (100 mM for 24 h) or left untreated before immunofluorescent labelling of TFEB (red) and mTOR (green) with FLAG and mTOR antibodies, respectively. Scale bar, 10 μm (d-g). Data represent means±s.e.m.
For immunofluorescence assay, cells were grown on coverslips in 24-well plates. After the treatment, cells were washed with PBS and fixed with methanol for 10 min. Cells were then blocked with blocking reagent (0.1% saponin, 10% bovine serum in PBS) for 1 h and incubated with appropriate primary antibody(s) (1:100) for 3 h at room temperature. […]

Another assay deals with T1, mTORC1 (Homo sapiens, UniProt P42345).
T1 construct: endogenous in cells; host or cells: HeLa
Briefly: Immunoblot of mTORC1 substrates in HeLa cells. Type of assay: cell-based. The following applies: trehalose 24 h or 48 h. On the procedure:
FIG. 8. […] HeLa cells were treated with trehalose for 24 h or 48 h, or with rapamycin (600 nM, 16 h) or Torin1 (300 nM, 2 h) as controls for mTORC1 inhibition. […] GAPDH was used as a loading control.
Brain tissue and cultured cells were collected and lysed in RIPA buffer (50 mM Tris-HCl, ph 7.4, 1% NP40, 0.5% Na-deoxycholate, 0.1% SDS, 150 mM NaCl, 2 mM EDTA and 50 mM NaF) including a cocktail of protease (Roche) and phosphatase (SIGMA) inhibitors. Protein concentrations were measured with the bicinchoninic acid protein assay kit (Pierce, Rockford, Ill.), using bovine serum albumin as standard. Lysates were separated via SDS-polyacrylamide gel electrophoresis (PAGE) and then transferred to nitrocellulose membranes. Blots were incubated in blocking buffer (5%, w/v, dried skimmed milk in Tris-buffered saline, pH 7.4 and 0.2% Tween 20, TBST) followed by overnight incubation with appropriate antibodies diluted in blocking buffer (5% dry milk). Western blot images were acquired by LAS 4000 (GE Healthcare) and quantified using ImageJ. Images have been cropped for presentation.
A general note: Immunoblotting shows a protein as a band on a membrane.

A further assay addresses T2, GSK3β (Homo sapiens, UniProt P49841).
T2 construct: endogenous in cells; host or cells: HeLa
Put plainly: GSK3β immunoblot in HeLa cells. Type of assay: cell-based. The following applies: trehalose 24 h. From the text:
FIG. 16. […] GAPDH was used as a loading control. […] Images have been cropped for presentation.

The next assay deals with HeLa cells. Briefly: Autophagic flux in HeLa cells (LAMP1, p62, LC3 markers). Type of assay: cell-based, human. As to conditions: time course. How it is done:
FIG. 14. Akt phosphorylates TFEB at Ser467. […] Dashed boxes (upper row) show the location of the higher power inserts (lower row). (b) Subcellular fractionation of HeLa/TFEB cells incubated with the same kinase inhibitors. (c) Multi-alignment of TFEB amino-acid sequences from the following species: Ac, Anolis carolensis; Bt, Bos taurus; Dr, Danio rerio; Fc, Felix catus; Gg, gallus gallus; Hs, Homo sapiens; La, Loxodonta africana; Mm, Mus musculus; Rn, Rattus Norvegicus; Sh, Sarcophilus harrisii; Sp, Strongylocentrotus purpuratus; XI, Xenopus laevis. A consensus logo of Akt phosphorylation sites (generated at weblogo.berkeley.edu/logo.cgi) is aligned with TFEB sequences. Position 467 refers to the human protein sequence. (d) Subcellular localization of TFEB and TFEB(S467A). (e) Expression analysis of lysosomal and autophagy genes in HeLa cells transfected with TFEB or TFEB(S467A). […]
Brain tissue and cultured cells were collected and lysed in RIPA buffer (50 mM Tris-HCl, ph 7.4, 1% NP40, 0.5% Na-deoxycholate, 0.1% SDS, 150 mM NaCl, 2 mM EDTA and 50 mM NaF) including a cocktail of protease (Roche) and phosphatase (SIGMA) inhibitors. Protein concentrations were measured with the bicinchoninic acid protein assay kit (Pierce, Rockford, Ill.), using bovine serum albumin as standard. […] Western blot images were acquired by LAS 4000 (GE Healthcare) and quantified using ImageJ. […]

The next assay concerns Cln3^Δex7-8 mice. Briefly: Microglial activation, CD68 immunohistochemistry. Format: in vivo, mouse. On the procedure:
Brains were subsequently removed and postfixed overnight. Before sectioning, the brains were cryoprotected in a solution containing 30% sucrose in Tris-buffered saline (TBS: 50 mM Tris, pH 7.6). Consecutive […] floating coronal sections were collected in 96-well plates. Series of sections were then stained with primary antisera against CD68 or GFAP, followed by either rabbit anti-rat (VectorLab) and swine anti-rabbit (DAKO) secondary antibodies, and immunoreactivity detected with Vectastain ABC (avidin-biotin) kit (Vector) and diaminobenzidine as a chromogen.
Thirty non-overlapping images were captured, on three consecutive sections, through each region of interest. All RGB images were captured via a live video camera (JVC, 3CCD, KY-F55B), mounted onto a Zeiss Axioplan microscope using a ×40 objective and saved as JPEGs. All parameters including lamp intensity, video camera set-up and calibration were maintained constant throughout image capturing. Images were subsequently analysed using ImageJ analysis software (NIH), using an appropriate threshold that selected the foreground immunoreactivity above background. This threshold was then applied as a constant to all subsequent images analysed per batch of animals and reagent used to determine the specific area of immunoreactivity for each antigen in each region. This analysis was performed blind to genotype. […]

Data on 1 molecule can be found in patent US10512656B2, “Compositions and methods for the treatment of lysosomal storage disorders and disorders characterized by lysosomal dysfunction” (Baylor College of Medicine, priority 2016, dated 2019).

T2 sequence (P49841 whole entry): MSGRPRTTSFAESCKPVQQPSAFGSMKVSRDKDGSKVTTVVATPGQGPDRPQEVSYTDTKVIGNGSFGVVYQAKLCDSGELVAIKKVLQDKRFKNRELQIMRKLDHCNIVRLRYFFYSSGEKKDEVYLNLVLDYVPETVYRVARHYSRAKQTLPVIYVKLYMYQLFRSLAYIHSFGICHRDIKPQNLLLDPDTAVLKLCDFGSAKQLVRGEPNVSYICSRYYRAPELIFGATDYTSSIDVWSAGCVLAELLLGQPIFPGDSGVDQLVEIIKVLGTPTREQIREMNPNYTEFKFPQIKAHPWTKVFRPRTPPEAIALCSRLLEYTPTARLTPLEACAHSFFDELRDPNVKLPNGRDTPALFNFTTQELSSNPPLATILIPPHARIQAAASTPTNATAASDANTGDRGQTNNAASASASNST

Regarding `OC[C@H]1O[C@H](O[C@H]2O[C@H](CO)[C@@H](O)[C@H](O)[C@H]2O)[C@H](O)[C@@H](O)[C@@H]1O` [trehalose, a-D-glucopyranosyl a-D-glucopyranoside], in the assay on TFEB, the TFEB nuclear translocation result is recorded as “induces nuclear translocation of TFEB”. The “phosphorylation state of mTORC1 substrates” value on mTORC1 was “no changes in their phosphorylation state”. For the same molecule, the GSK3β activity entry on GSK3β is given as “no detectable effect”. Moreover, in the assay on HeLa cells, the autophagic flux result is recorded as “increasing autophagic flux”. In addition, the “microglial activation (CD68)” value in the assay on Cln3^Δex7-8 mice (S1BF region, 7 months of age) is “significantly rescued”. In the assay with Cln3^Δex7-8 mice (VPM/VPL region, 12 months of age), the “reduction of microglial activation (CD68)” value is 48%.
